Where a name gives a salt, the structure may show the parent alone.
Columns and labels:
[1] = Solubility in water and olive oil (Method III)
Protocol: a) Preparation of olive oil or aqueous solutions. 1 ml of olive oil or I ml of double-distilled water (or dilute NaOH pH=7.6) was added to 1 mg or 10 mg or 50 mg of the respective compound at 37° C. and it was checked whether a clear solution was obtained. The optionally centrifuged and decanted olive oil solutions were heated for 5 minutes using a Bunsen burner and the degree of browning of the olive oil was determined. […] Samples having poor protective action are given a (*) in the table (see below).

[2] = Use as an additive in frying fat: color change of butter (Method II); conditions: 1% (weight/weight) in butter
Protocol: Use as an additive in frying fat: Samples of commercially available German non-blended butter were melted and in each case 1% (weight/weight) of BHT (=butylated hydroxytoluene) or 2,6-di-tert.-butyl-4-(7-nonynoyl)-phenol [=compound according to Example 17] or ethyl 2-(3,5-di-tert.-butyl-4-hydroxybenzyl)-3-oxo-docosanoate [=compound according to Example 18] or N-octadecyl-DL-α-lipoic acid amide [=compound according to Example 52] was added and the mixture was used in the customary manner as frying fat. […] The better protective action of the […] probably comes about as a result of their lipophilic side chains and, therefore, improved lipophilic interaction. The advantageous action of N-octadecyl-DL-α-lipoic acid amide is particularly surprising, although this preparation has no recognizable antioxidative component.

[3] = test system: thrombus formation in rats; assay: Laser-induced thrombosis in rats in vivo (Method VIII); design: species or system rat; conditions: 30 mg/kg oral, laser induction 60 min after administration
Protocol: The experimental procedure was carried out in every detail as described in U.S. Pat. No. 4,694,024. Laser induction took place 60 min after oral administration of the antioxidants.

[4] = olive oil, organic solvent or mixture

SMILES: CCCCCCCCCCCCCCCCCCCC(O)C(Cc1cc(C(C)(C)C)c(O)c(C(C)(C)C)c1)C(=O)OCC (centres unmarked) [Example 24]
- solubility [1, 4]: > 50000 µg/mL
- solubility ([1]; water): < 100 µg/mL

SMILES: CCCCCCCCCCCCCCCCCCOCC(O)COC(=O)c1cc(C(C)(C)C)c(O)c(C(C)(C)C)c1 (centres unmarked) [Example 23]
- solubility [1, 4]: > 50000 µg/mL
- solubility ([1]; water): < 100 µg/mL

SMILES: CCCCCCCCCCCCCCCC(=O)NCCCNC(=O)C1(C)CCc2c(C)c(O)c(C)c(C)c2O1 (centres unmarked) [Example 7]
- solubility [1, 4]: > 10000 µg/mL
- solubility ([1]; water): < 100 µg/mL

SMILES: CCCCCCCCCCCCCCCCCC(=O)OC[C@H](OC(=O)CCCCCCCCCCCCCCCCC)[C@H]1OC(=O)C(OP(=O)(OCC)OCC)=C1O [Example 35]
- solubility [1, 4]: > 1000 µg/mL
- solubility ([1]; water): < 100 µg/mL

SMILES: O=C(O)c1cc(O)c(O)c(O)c1 [Gallic acid, reference compound]
- solubility [1, 4]: < 100 µg/mL
- solubility ([1]; water): > 10000 µg/mL

SMILES: CCCCCCCCCCCCCCCCCCOCC(CO)OC(=O)c1cc(C(C)(C)C)c(O)c(C(C)(C)C)c1 (centres unmarked) [Example 22]
- solubility [1, 4]: > 50000 µg/mL
- solubility ([1]; water): < 100 µg/mL

SMILES: O[C@H](CS)[C@@H](O)CS [Dithioerythritol, reference compound]
- solubility [1, 4]: < 100 µg/mL
- solubility ([1]; water): > 10000 µg/mL

SMILES: CCCCCCCCCCCCCCCCCCCC(=O)C(=Cc1cc(C(C)(C)C)c(O)c(C(C)(C)C)c1)C(=O)OCC [Example 28]
- solubility [1, 4]: > 50000 µg/mL
- solubility ([1]; water): < 100 µg/mL

SMILES: CCCCCCC#CC(=O)c1cc(C(C)(C)C)c(O)c(C(C)(C)C)c1 [Example 17]
- color change of frying fat after the frying procedure [2]: substantially lower color change
- solubility [1, 4]: > 50000 µg/mL
- solubility ([1]; water): < 100 µg/mL

SMILES: CC(CCC(=O)NCCCNC(=O)CCCCC(S)CCS)C1CC[C@H]2C3CC[C@@H]4C[C@H](O)CC[C@]4(C)[C@H]3C[C@H](O)[C@]12C (some centres unmarked) [Example 48]
- solubility [1, 4]: > 50000 µg/mL
- solubility ([1]; water): < 100 µg/mL

SMILES: CC(C)CCCC(C)C1CC[C@H]2C3CC=C4CC(OC(=O)CCCCC(S)CCS)CC[C@]4(C)[C@H]3CC[C@]12C (some centres unmarked) [Example 46]
- solubility [1, 4]: > 50000 µg/mL
- solubility ([1]; water): < 100 µg/mL

SMILES: CCCCCCNC(=O)C1(C)CCc2c(C)c(O)c(C)c(C)c2O1 (centres unmarked) [Example 4]
- solubility [1, 4]: > 10000 µg/mL
- solubility ([1]; water): > 100 µg/mL

SMILES: CCCCCCCCCCCCCCCCCC(=O)OC[C@H](O)[C@H]1OC(=O)C(OP(=O)(OCC)OCC)=C1O [Example 34]
- solubility [1, 4]: > 1000 µg/mL
- solubility ([1]; water): < 100 µg/mL

SMILES: CCCCCCC(=O)NCCCNC(=O)C1(C)CCc2c(C)c(O)c(C)c(C)c2O1 (centres unmarked) [Example 5]
- solubility [1, 4]: > 10000 µg/mL
- solubility ([1]; water): < 100 µg/mL

SMILES: O=C(O)C(S)C(S)C(=O)O (centres unmarked) [2,3-Mercaptosuccinic acid, reference compound]
- solubility [1, 4]: < 100 µg/mL
- solubility ([1]; water): > 10000 µg/mL

SMILES: CCCCCCCCCCCCCCCCCCC(COCCOC1=C(O)C(C(O)CO)OC1=O)COCCOC1=C(O)C(C(O)CO)OC1=O (centres unmarked) [Example 36]
- suitability for use in aqueous oil emulsions owing to solubility properties [1]: outstandingly suitable for use in aqueous oil emulsions
- solubility [1, 4]: > 10000 µg/mL
- solubility ([1]; water): > 10000 µg/mL
- Reduction of thrombus formation [3]: 17%

SMILES: CC(C)CCC[C@@H](C)[C@H]1CC[C@H]2[C@@H]3CC=C4C[C@@H](OCCOC5=C(O)[C@@H]([C@@H](O)CO)OC5=O)CC[C@]4(C)[C@H]3CC[C@]12C [Example 33]
- solubility [1, 4]: > 1000 µg/mL
- solubility ([1]; water): < 100 µg/mL
- Reduction of thrombus formation [3]: 13%

SMILES: Cc1c(C)c2c(c(C)c1O)CCC(C)(C(=O)O)O2 (centres unmarked) [6-Hydroxy-2,5,7,8-tetramethylchroman-2-carboxylic acid, reference compound]
- solubility [1, 4]: < 100 µg/mL
- solubility ([1]; water): > 10000 µg/mL

SMILES: Cc1cc(C(C)(C)C)c(O)c(C(C)(C)C)c1 [BHT, butylated hydroxytoluene, reference compound]
- color change of frying fat after the frying procedure [2]: transformed into a viscous, dark brown material
- solubility [1, 4]: > 10000 µg/mL
- solubility ([1]; water): < 100 µg/mL

SMILES: CC(C)(C)OC(=O)CCCCC(CCSCc1cc(C(C)(C)C)c(O)c(C(C)(C)C)c1)SCc1cc(C(C)(C)C)c(O)c(C(C)(C)C)c1 (centres unmarked) [Example 20]
- solubility [1, 4]: > 50000 µg/mL
- solubility ([1]; water): < 100 µg/mL

SMILES: Cc1c(C)c2c(c(C)c1O)CCC(C)(C(=O)NCCCNC(=O)CC[C@@H](C)[C@H]1CC[C@H]3[C@@H]4[C@H](O)C[C@@H]5C[C@H](O)CC[C@]5(C)[C@H]4C[C@H](O)[C@]13C)O2 (some centres unmarked) [Example 1]
- solubility [1, 4]: > 10000 µg/mL
- solubility ([1]; water): > 100 µg/mL
- Reduction of thrombus formation [3]: 16%

SMILES: CCCCCCCCCCCCCCCCCCCC1OC(C)(C)OCC1Cc1cc(C(C)(C)C)c(O)c(C(C)(C)C)c1 (centres unmarked) [Example 26]
- solubility [1, 4]: > 50000 µg/mL
- solubility ([1]; water): < 100 µg/mL

SMILES: CC(C)(C)c1cc(C2SCCC(CCCCC(=O)O)S2)cc(C(C)(C)C)c1O (centres unmarked) [Example 19]
- solubility [1, 4]: > 50000 µg/mL
- solubility ([1]; water): < 100 µg/mL

SMILES: Cc1c(C)c2c(c(C)c1O)CCC(C)(C(=O)NC1CCCCC1)O2 (centres unmarked) [Example 8]
- solubility [1, 4]: > 10000 µg/mL
- solubility ([1]; water): < 100 µg/mL

SMILES: CCCCCCCCCCCCCCCCCCP(=O)(OC1=C(O)C([C@@H](O)CO)OC1=O)OC1=C(O)C([C@@H](O)CO)OC1=O (some centres unmarked) [Example 37]
- solubility [1, 4]: > 1000 µg/mL
- solubility ([1]; water): > 10000 µg/mL

SMILES: CCCCCCCCCCCCCCCCCCCC(O)C(CO)Cc1cc(C(C)(C)C)c(O)c(C(C)(C)C)c1 (centres unmarked) [Example 25]
- solubility [1, 4]: > 50000 µg/mL
- solubility ([1]; water): < 100 µg/mL

SMILES: CCCCCCCCCCCCCCCCCCCC(O)C(Cc1cc(C(C)(C)C)c(O)c(C(C)(C)C)c1)C(=O)O (centres unmarked) [Example 27]
- solubility [1, 4]: > 1000 µg/mL
- solubility ([1]; water): > 10000 µg/mL

SMILES: CCCCCCCCCCCCCCCCCCCC(=O)C(Cc1cc(C(C)(C)C)c(O)c(C(C)(C)C)c1)C(=O)OCC (centres unmarked) [Example 18, ethyl 2-(3,5-di-tert.-butyl-4-hydroxybenzyl)-3-oxo-docosanoate]
- color change of frying fat after the frying procedure [2]: substantially lower color change
- solubility [1, 4]: > 50000 µg/mL
- solubility ([1]; water): < 100 µg/mL

SMILES: CCCCCCCCCCCCCCCCCCOCC(O)COCc1cc(C(C)(C)C)c(O)c(C(C)(C)C)c1 (centres unmarked) [Example 21]
- solubility [1, 4]: > 50000 µg/mL
- solubility ([1]; water): < 100 µg/mL

SMILES: CCCCCCCCCCCCCCCCCCNC(=O)C1(C)CCc2c(C)c(O)c(C)c(C)c2O1 (centres unmarked) [Example 6]
- solubility [1, 4]: > 10000 µg/mL
- solubility ([1]; water): < 100 µg/mL

SMILES: CCCCCCCCCCCCCCCC(=O)OC[C@H](O)[C@H]1OC(=O)C(O)=C1O [Ascorbyl palmitate, reference compound]
- solubility [1, 4]: > 100 µg/mL
- solubility ([1]; water): < 100 µg/mL

SMILES: Cc1c(C)c2c(c(C)c1O)CCC(C)(C(=O)NCCO[C@H]1CC[C@@]3(C)[C@@H](C1)C[C@@H](O)[C@@H]1[C@@H]3C[C@H](O)[C@]3(C)[C@@H]([C@H](C)CCC(=O)O)CC[C@@H]13)O2 (some centres unmarked) [Example 3]
- solubility [1, 4]: > 1000 µg/mL
- solubility ([1]; water): < 100 µg/mL
- Reduction of thrombus formation [3]: 11%

SMILES: CC(C)CCCC(C)C1CC[C@H]2C3CC=C4CC(OC(=O)CCCCC5CCSS5)CC[C@]4(C)[C@H]3CC[C@]12C (some centres unmarked) [Example 53]
- solubility [1, 4]: > 50000 µg/mL
- solubility ([1]; water): < 100 µg/mL

SMILES: O=C(O)CCCC[C@@H](S)CCS (racemic) [Dihydrolipoic acid, Na salt, Dihydrolipoic acid, reference compound]
- solubility [1, 4]: < 100 µg/mL
- solubility ([1]; water): > 10000 µg/mL

SMILES: CC(C)CCC[C@@H](C)[C@H]1CC[C@H]2[C@@H]3CC=C4C[C@@H](OCCOCc5cc(C(C)(C)C)c(O)c(C(C)(C)C)c5)CC[C@]4(C)[C@H]3CC[C@]12C [Example 13]
- solubility [1, 4]: > 50000 µg/mL
- solubility ([1]; water): < 100 µg/mL
- Reduction of thrombus formation [3]: 17%

SMILES: CC(C)(Sc1cc(C(C)(C)C)c(O)c(C(C)(C)C)c1)Sc1cc(C(C)(C)C)c(O)c(C(C)(C)C)c1 [4,4'-(Isopropylidenedithio)bis[2,6-di-tert.-butylphenol], reference compound]
- Reduction of thrombus formation [3]: 6%
